The record followed here is patent publication US10815312B2, “Bifunctional peptide having capability to permeate cells and capability to regenerate muscles and use thereof” (Seoul National University R&DB Foundation, priority 2018, dated 2020).

Assay [1] relates to mesenchymal stem cells. The assay can be described thus: Differentiation of stem cells into myocytes, gene expression of muscle differentiation markers by real-time RT-PCR. In kind it is cell-based. As to conditions: 100 μM peptide, muscle differentiation medium, real-time RT-PCR (FIG. 3). The protocol:
3×10^6 mesenchymal stem cells were cultured in a bacterial culture dish for 3 days to form spheroids. The medium used was low-glucose DMEM with 10% FBS and 1% P/S. After 3 days, the supernatant was removed and only the spheroids were collected and seeded in a cell culture dish coated with 10 ug/ml of collagen type I for 4 days. The medium used was DMEM/F12 with 1 ng/ml TGFb (transforming growth factor beta), 1×NEAA (nonessential amino acids) and 1×ITS (insulin-transferrin selenium). After 4 days, the medium was changed to low-glucose DMEM with 2% FBS and 10 ng/ml IGF-1 (insulin growth factor-1), differentiation was further induced for 2 weeks, and muscle differentiation markers were identified. The cells were treated with 100 μM of the group not treated with peptide using only a muscle differentiation medium (NT), 100 μM of the groups treated with the peptides of SEQ ID NOS: 1 to 8 and 100 μM of the control peptide (SEQ ID NO: 9) in order to determine the efficiency of expression of the muscle differentiation markers by the peptides. The levels of gene expression of dystrophin and myogenin, as muscle differentiation markers, were measured through real-time RT-PCR. The base sequences of the PCR primers used for amplification of respective genes are as follows.

The target of assay [2] is T1, intracellular HDAC5 (Mus musculus, UniProt Q9Z2V6).
T1 construct: endogenous in cells; host or cells: C2C12 muscle precursor cells
Nature of the assay: Binding ability to intracellular HDAC5 by immunoprecipitation. The note with it: C2C12 cells treated for 2 hours, immunoprecipitation with HDAC5 antibody, western blotting with FITC antibody (FIG. 2). The protocol:
Muscle precursor cells (C2C12) were transplanted at a density of 1.5×10^6/well in a 10 pi dish and cultured in EMEM (Eagle's Minimal Essential Medium, ATCC). The medium was replaced at 24-hour intervals until confluency of cells reached 50%. When the confluency was 50%, the medium was replaced with Essential 8 medium, and the cells were treated with the peptide of SEQ ID NO: 1 for 2 hours. Then, the binding ability to intracellular HDAC5 was identified by immunoprecipitation. The lysate harvested with RIPA buffer containing a protease inhibitor was quantified through a BCA assay. Each sample quantified with a minimum volume of 500 μl at a concentration of 1 μg/ml was collected in a microtube, 2 μg of HDAC5 first antibody was added thereto, and the mixture was reacted under rotation for 16 hours at 4° C. in a refrigerated state. 20 μl of protein A/G agarose beads were added and reacted at 4° C. for 3 hours. Then, the beads were centrifuged, washed three times with DPBS and heated at 85° C. for 5 minutes in a 2× sample buffer, and only the supernatant was obtained, followed by western blotting and identification using an FITC antibody.

T1 sequence (Q9Z2V6 whole entry): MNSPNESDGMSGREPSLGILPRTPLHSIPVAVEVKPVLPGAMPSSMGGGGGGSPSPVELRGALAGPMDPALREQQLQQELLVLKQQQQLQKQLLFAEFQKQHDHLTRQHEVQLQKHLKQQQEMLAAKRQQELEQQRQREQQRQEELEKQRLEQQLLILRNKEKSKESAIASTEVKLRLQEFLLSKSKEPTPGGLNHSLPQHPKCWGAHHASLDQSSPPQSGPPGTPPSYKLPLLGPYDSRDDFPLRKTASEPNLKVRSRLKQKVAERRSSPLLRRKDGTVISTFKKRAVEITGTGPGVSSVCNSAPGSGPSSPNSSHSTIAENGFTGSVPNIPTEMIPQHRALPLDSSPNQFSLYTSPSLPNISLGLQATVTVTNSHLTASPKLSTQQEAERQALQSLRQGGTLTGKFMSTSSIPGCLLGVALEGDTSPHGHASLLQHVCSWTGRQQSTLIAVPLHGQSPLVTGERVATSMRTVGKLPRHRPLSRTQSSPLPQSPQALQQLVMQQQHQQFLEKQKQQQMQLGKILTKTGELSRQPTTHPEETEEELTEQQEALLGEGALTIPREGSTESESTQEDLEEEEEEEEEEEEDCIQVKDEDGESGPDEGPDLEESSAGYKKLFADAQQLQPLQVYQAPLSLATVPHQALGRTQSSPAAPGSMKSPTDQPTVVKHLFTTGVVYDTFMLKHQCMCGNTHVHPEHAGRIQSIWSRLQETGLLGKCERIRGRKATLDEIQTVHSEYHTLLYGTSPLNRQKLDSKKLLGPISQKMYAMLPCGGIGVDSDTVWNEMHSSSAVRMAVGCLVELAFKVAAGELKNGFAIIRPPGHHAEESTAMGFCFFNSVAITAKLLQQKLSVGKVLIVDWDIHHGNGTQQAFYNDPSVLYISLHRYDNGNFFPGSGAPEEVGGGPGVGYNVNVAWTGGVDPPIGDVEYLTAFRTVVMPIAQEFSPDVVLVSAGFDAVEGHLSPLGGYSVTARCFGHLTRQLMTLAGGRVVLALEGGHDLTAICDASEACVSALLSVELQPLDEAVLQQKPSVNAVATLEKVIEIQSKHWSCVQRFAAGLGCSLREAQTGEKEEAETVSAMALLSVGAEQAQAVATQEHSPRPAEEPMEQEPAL

On to “GLRSKSKKFRRPDIQYPDA (Control peptide C1) [SEQ ID NO: 9]”, for which, in assay [1], the “gene expression of dystrophin” value was “did not exhibit an increase in gene expression” and the “gene expression of myogenin” value is “did not exhibit an increase in gene expression”.
Consider GKCSTRGRKCCRRKK [SEQ ID NO: 1], for which the “binding to intracellular HDAC5” value in assay [2] is recorded as “binds to intracellular HDAC5”.
